For series [1], the system named is C57BL/6 mice. The text has this:
(§1) A. Experimental animals. C57BL/6 mice (6-8 weeks old) of both sexes were used. Mice were housed in groups on a 12-h light-dark cycle (6:00 am light cycle; 6:00 pm dark cycle) with food (Teklad Global 16% protein rodent diets; Envigo Inc., WI, USA) and water available ad libitum. Animal groups were compiled to ensure minimization of factors (e.g., weight, sex, and health). Mice were within 20-28 g in weight at start of all studies. All tested groups contained a control group and consisted of male and female mice. Males and females were tested on the same day but at different times so that they were not in the room at the same time. All the experiments were tested during the light cycle between 8:00 am and 3:00 pm to avoid any long-term disruption of sleep cycles. Mice were transferred to the behavioural testing room at least 45 min before the first test to acclimatize. Following behavioural evaluation, animals were killed by CO2 inhalation, followed by cervical dislocation and postmortem decapitation.
(§2) B. Drug treatments. […] The dose of YM-254890 for subcutaneous injection was taken from previous published studies. The dose of morphine selected for subcutaneous administration (2.5, 5 and 10 mg kg-1) is commonly used in mouse analgesia. For the combined administration of morphine and YM-254890 on thermal anti-nociception, YM-254890 was administered 10 min before the morphine. The latency of response was measured before injection of drugs (baseline latency response) and at different time intervals (post-treatment latency response) after drugs injection.
(§3) C. Intrathecal injections. Intrathecal (i.t.) administration was performed following the method described previously (Hylden J L et al. “Intrathecal morphine in mice: a new technique.” Eur J Pharmacol (1980) 67:313-316; Li D et al. “Direct Intrathecal Injection of Recombinant Adeno-associated Viruses in Adult Mice.” J Vis Exp (2019)) with slight modifications. All intrathecal injections were performed using a 25 μL Hamilton syringe with a 30-gauge needle. The injection volume was 5 μL for each mouse. […] Each solution was injected without injection cannulae. Intrathecal injections were made into the L5-L6 intervertebral space of unanesthetized mice. The flick of the tail was considered indicative of a successful i.t. administration.

Series [2] deals with C57BL/6 mice. In words: Tail immersion test (54° C), spinal analgesia. Format: in vivo, mouse. Particulars: for anti-nociceptive response in tail flick (tail immersion) test: subcutaneous.
Source text: as §1, §2, §3
(2) Tail Immersion test. Anti-nociception induced by YM-254890 or evaluation of morphine's analgesic effects was determined by tail immersion test. The test was performed as previously described (Wang et al. 2019). Individual mice were transferred to experimentation room and restrained using a well-ventilated 50-ml tube with air holes. In order to minimize handling and to facilitate both the drug delivery and testing, each mouse was comfortably positioned in the plastic restrainer tubes with both fore paws and hind paws extending through holes at the bottom of the restrainer. All animals were habituated to restraint 1 h for 3 days prior to behaviour test. […] Once the animal was immobilized (within 25-30 s), two thirds of the entire tail was dipped in water bath heated to 54° C.

The test system of series [3] is C57BL/6 mice. In words: Hot plate test (52.5° C), anti-nociception. Format: in vivo, mouse.
Source text: as §1, §2
D. Intracerebral injections. Intracerebroventricular administration was performed following the method described previously with slight modifications (Haley T J et al. “Pharmacological effects produced by intracerebral injection of drugs in the conscious mouse.” British Journal of Pharmacology and Chemotherapy, (1957) 12:12-15; Narita M et al. “Reduced expression of a novel μ-opioid receptor (MOR) subtype MOR-1B in CXBK mice: Implications of MOR-1B in the expression of MOR-mediated responses.” The European Journal of Neuroscience (2003) 18:3193-3198)). On the day of the drug/vehicle injection or on the day of behavioural test, the mouse was secured at the nape of the neck and head by the investigator's thumb and forefinger, and head of the mouse was held against a V-shaped holder. A 27-gauge hypodermic needle attached with 25 μL. Hamilton microsyringe was inserted perpendicularly into the unilateral injection site into the hole with the depth of 3.5 mm. The injection volume was 4 μL.
(1) Hot Plate test. Animals were tested for the assessment of anti-nociception and analgesic effects of morphine using a hotplate set to 52.5° C. The assay was performed as described previously (Bannon A W et al. “Models of nociception: Hotplate, tail-flick, and formalin tests in rodents.” In Current Protocols in Neuroscience, Chapter 8: Unit 8.9. Wiley (2007); Wang D et al. “Genetic behavioral screen identifies an orphan anti-opioid system.” Science (2019) 365:1267-1273). Mice were placed in a Plexiglas chamber (16″ tall and 8″ in diameter) on a ceramic plate heated to 52.5° C. and the timer started.
A general note: Thermal pain tests record how soon the animal reacts.

Setting [4] is: YM-254890 0.5 mg·kg−1 s.c. 10 min before morphine 5 mg/kg s.c.
[5] abbreviates: YM-254890 s.c. with morphine 5 mg/kg s.c., all animals.

The structures appear in SMILES notation. Positions of bridges follow the written chain, without caps; N, C: chain ends. Non-standard residues stand in square brackets, D forms with d. Residues, ends and D or L forms follow the SMILES beside them. Leu(3R-O(AcLeu(3R-OH))) = CC(=O)N[C@H](C(=O)O[C@H](C(C)C)[C@H](N)C(=O)O)[C@H](O)C(C)C; NMeT = CN[C@H](C(=O)O)[C@@H](C)O; dPhLac = O=C(O)[C@H](O)Cc1ccccc1; NMeA = CN[C@@H](C)C(=O)O; NMeDha = C=C(NC)C(=O)O

As to `C=C1C(=O)N[C@@H](C)C(=O)N(C)[C@@H](C)C(=O)N[C@@H]([C@H](OC(=O)[C@@H](NC(C)=O)[C@H](O)C(C)C)C(C)C)C(=O)N(C)[C@@H]([C@@H](C)OC)C(=O)O[C@H](C)[C@H](NC(C)=O)C(=O)O[C@H](Cc2ccccc2)C(=O)N1C` [YM-254890] (Ac-T[dPhLac][NMeDha]A[NMeA][Leu(3R-O(AcLeu(3R-OH)))][NMeT](Me); ester 1-C), the “effect on morphine locomotor-sensitizing effect, open-field test” value in series [1] (YM-254890 0.5 mg/kg s.c. 10 min before morphine 5 mg/kg s.c., 120 min) is on record as “completely suppressed these effects”. In addition, the “locomotion in open-field test” value in series [1] (YM-254890 0.5 mg/kg s.c. with morphine 5 mg/kg s.c., comparable with YM-254890 alone) was “substantial decrease in locomotion”. In series [1] (YM-254890 intrathecal 3.0 nmol, alone or in combination with morphine 2.5 mg/kg s.c., 120 min), the “motor activity in open-field test after intrathecal delivery” value is “no significant changes in motor activity”. In addition, the “effect on morphine analgesia, tail immersion test” value in series [2] (YM-254890 0.25 mg kg-1 s.c. 10 min before morphine 5 mg/kg s.c.) was “eliminated this effect”; in series [2] (setting [4]), “significant enhancement of the anti-nociceptive effects of morphine”. Also, the “time to return to baseline nociception, tail immersion test” value in series [2] (YM-254890 alone, intrathecal, 3.0 and 4.5 nmol) is reported as “about 2 h”. Further, the “magnitude of anti-nociceptive effect upon increasing the dose, tail immersion test” value in series [2] (YM-254890 alone, intrathecal, 3.0 to 4.5 nmol (ceiling effect)) is “did not change”. Besides, in series [2] (YM-254890 alone, intrathecal, doses above 1.5 nmol per injection), the “anti-nociception in tail immersion test, intrathecal” value was “significant anti-nociceptive properties”. In addition, the “anti-nociceptive response in tail flick (tail immersion) test” value in series [2] (YM-254890 alone, highest dose 1 mg·kg−1) is “significant anti-nociceptive response”; in series [2] (YM-254890 alone, lower doses (0.1, 0.3, 0.5 mg/kg)), “no significant difference in nociceptive response”. In addition, in series [2] (YM-254890 intrathecal 0.5 nmol (lowest subthreshold dose) 10 min before morphine 2.5 mg/kg s.c.), the “effect on systemic morphine analgesia, tail immersion test” value is listed as “significantly enhance the anti-nociceptive effects of morphine”. In addition, in series [2] (YM-254890 intrathecal 0.5, 1.5, 3.0, 4.5 nmol with morphine 2.5 mg/kg s.c.), the “dose dependence of enhancement of morphine analgesia, tail immersion test” value was “increased dose dependently until maximizing at the cut-off value for the test”. Further, the “maximal extent and duration of morphine analgesia, tail immersion test” value in series [2] (YM-254890 intrathecal, at each of the doses, with morphine 2.5 mg/kg s.c.) is “both the maximal extent and duration of the analgesic effects of morphine were increased”. Further, the “effect on opioid-induced analgesia, hotplate test” value in series [3] (YM-254890 0.25 mg·kg−1 s.c. (subthreshold) 10 min before morphine 5 mg/kg s.c.) is listed as “significantly potentiated anti-nociceptive effects”; in series [3] (setting [4]) it was “further enhancement of opioid analgesia”. In series [3] (YM-254890 0.25 or 0.5 mg·kg−1 s.c. with morphine 5 mg/kg s.c.), the “effect on onset timing and duration of opioid analgesia, hotplate test” value was “no effect on either the onset timing or duration of the opioid analgesia”. Besides, the “time of maximal analgesic response after injection, hotplate test” value in series [3] (YM-254890 alone, subcutaneous, 0.5 and 1.0 mg·kg−1) is 30 min. In addition, the “paw withdrawal latencies in hotplate test” value in series [3] (YM-254890 alone, subcutaneous, higher doses 0.5 and 1.0 mg·kg−1) is listed as “produced increases in paw withdrawal latencies”; in series [3] (YM-254890 alone, subcutaneous, lower doses 0.1 and 0.3 mg·kg−1) it was “No significant effect”. Also, the “analgesia in hotplate test after delivery directly into the brain” value in series [3] (YM-254890 i.c.v. 0.4, 1.2, 4 nmol) was “dose-dependent increase in both the extent and duration of analgesia”. In addition, the “time to reach maximal latencies, hotplate test” value in series [3] (setting [5]) is recorded as “about 30 min”. Also, the “time to recover to baseline nociceptive thresholds, hotplate test” value in series [3] (setting [5]) was “about 3 h”.

The values are drawn from US20250177478A1, “G ALPHA Q/11 INHIBITORS FOR USE AS AN ANALGESIC” (University of Florida Research Foundation, Incorporated, priority 2022, published 2025).
